Experimental data: patent US11976083B2, “Inhibitors of peptidylarginine deiminases” (Gilead Sciences, Inc., priority 2020, dated 2024)

Target: T1, human PAD4 (Homo sapiens, UniProt Q9UM07)
T1 construct: human PAD4 (NM_012387), A2-P663, was PCR amplified; His-SUMO (N, cleaved yes); made in house; host or cells: E. coli BL21(DE3)
Test: In vitro PAD4 BAEE biochemical assay
Conditions: BAEE substrate 3 mM, 5 nM PAD4, 2 mM calcium chloride; geometric mean of multiple experiments
Outline: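 PAD4 5 nM, CaCl2 2 mM, BAEE 3 mM final; 50 mM MOPS pH 7.6, 50 mM NaCl, 0.05% Tween-20, 2 mM DTT. Cpd + enzyme 30 min 25 °C; substrate 2 h 25 °C; EDTA stop; OPA detection 1 h. IC50 4-parameter fit.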

T1 sequence (Q9UM07 2-663): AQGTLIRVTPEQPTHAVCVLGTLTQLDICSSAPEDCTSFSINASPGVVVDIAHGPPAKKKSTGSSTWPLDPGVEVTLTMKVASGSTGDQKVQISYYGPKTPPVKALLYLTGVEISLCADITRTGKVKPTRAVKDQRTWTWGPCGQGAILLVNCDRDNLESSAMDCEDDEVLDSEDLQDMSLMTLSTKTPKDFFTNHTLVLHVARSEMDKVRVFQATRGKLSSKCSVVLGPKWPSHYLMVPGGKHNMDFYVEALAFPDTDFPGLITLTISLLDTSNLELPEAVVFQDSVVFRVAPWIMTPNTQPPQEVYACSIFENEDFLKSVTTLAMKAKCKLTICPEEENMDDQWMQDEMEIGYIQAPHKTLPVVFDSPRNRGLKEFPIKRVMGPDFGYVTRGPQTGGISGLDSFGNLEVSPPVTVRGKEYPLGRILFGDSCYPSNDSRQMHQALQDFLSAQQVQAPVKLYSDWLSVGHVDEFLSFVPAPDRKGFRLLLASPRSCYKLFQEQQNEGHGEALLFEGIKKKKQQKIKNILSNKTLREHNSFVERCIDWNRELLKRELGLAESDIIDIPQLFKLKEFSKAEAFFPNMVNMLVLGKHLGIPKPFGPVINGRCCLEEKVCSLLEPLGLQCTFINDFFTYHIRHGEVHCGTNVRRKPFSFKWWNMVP

Row | IC50 | SMILES
1 | 0.914 µM | COc1cc(C(=O)N2CCC[C@@H](N)C2)cc2nc(-c3cc4ccc5nc4n3CCOCCOCCOC5C)n(C)c12 (stereo partly shown) [Example 298, [(3~{R})-3-amino-1-piperidyl]-[7-methoxy-1-methyl-2-(11-methyl-4,7,10-trioxa-1,19-diazatricyclo[10.5.2.0^{15,18}]nonadeca-12(19),13,15(18),16-tetraen-17-yl)benzimidazol-5-yl]methanone]
2 | 0.058 µM | COc1cc(C(=O)N2C[C@H](N)CCN2C)cc2nc(-c3cc4ccc5nc4n3CCCCCCC(C)(C)C(=O)N[C@@H]5C)n(C)c12 [Example 299, (11~{R})-17-[5-[(5~{R})-5-amino-2-methyl-hexahydropyridazine-1-carbonyl]-7-methoxy-1-methyl-benzimidazol-2-yl]-8,8,11-trimethyl-1,10,19-triazatricyclo[10.5.2.0^{15,18}]nonadeca-12(19),13,15(18),16-tetraen-9-one]
3 | 0.05 µM | COc1cc(C(=O)N2CCC[C@@H](N)C2)cc2nc(-c3cc4ccc5nc4n3CCCCCCC(=O)N[C@@H]5C)c(C)n12 [Example 300, (10~{R})-16-[7-[(3~{R})-3-aminopiperidine-1-carbonyl]-5-methoxy-3-methyl-imidazo[1,2-a]pyridin-2-yl]-10-methyl-1,9,18-triazatricyclo[9.5.2.0^{14,17}]octadeca-11(18),12,14(17),15-tetraen-8-one]
4 | 0.036 µM | COc1cc(C(=O)N2CCC[C@@H](N)C2)cc2nc(-c3cc4ccc5nc4n3CCCCCCCC(=O)N[C@@H]5C)c(C)n12 [Example 301, (11~{R})-17-[7-[(3~{R})-3-aminopiperidine-1-carbonyl]-5-methoxy-3-methyl-imidazo[1,2-a]pyridin-2-yl]-11-methyl-1,10,19-triazatricyclo[10.5.2.0^{15,18}]nonadeca-12(19),13,15(18),16-tetraen-9-one]
5 | 0.067 µM | COc1cc(C(=O)N2C[C@H]3CC[C@@H]2[C@@H]3N)cc2nc(-c3cc4ccc5nc4n3CCCCCCCC(=O)N[C@@H]5C)c(C)n12 [Example 302, (11~{R})-17-[7-[(1~{R},4~{R},7~{R})-7-amino-2-azabicyclo[2.2.1]heptane-2-carbonyl]-5-methoxy-3-methyl-imidazo[1,2-a]pyridin-2-yl]-11-methyl-1,10,19-triazatricyclo[10.5.2.0^{15,18}]nonadeca-12(19),13,15(18),16-tetraen-9-one]
6 | 0.525 µM | COc1cc(C(=O)N2CCC[C@@H](N)C2)cc2nc(-c3cc4ccc5nc4n3CCC3(CC3)COCCC(=O)N[C@@H]5C)c(C)n12 [Example 303, (11~{R})-17-[7-[(3~{R})-3-aminopiperidine-1-carbonyl]-5-methoxy-3-methyl-imidazo[1,2-a]pyridin-2-yl]-11-methyl-spiro[6-oxa-1,10,19-triazatricyclo[10.5.2.0^{15,18}]nonadeca-12(19),13,15(18),16-tetraene-4,1′-cyclopropane]-9-one]
7 | 0.07 µM | COc1cc(C(=O)N2CCC[C@@H](N)C2)cc2nc(-c3cc4ccc5nc4n3C[C@H]3C[C@H]3COCCC(=O)N[C@@H]5C)n(C)c12 [Example 304, (3~{S),5~{R},12~{R})-18-[5-[(3~{R})-3-aminopiperidine-1-carbonyl]-7-methoxy-1-methyl-benzimidazol-2-yl]-12-methyl-7-oxa-1,11,20-triazatetracyclo[11.5.2.0^{3,5}.0^{16,19}] icosa-13(20),14,16(19),17-tetraen-10-one]
8 | 0.065 µM | COc1cc(C(=O)N2CCC[C@@H](N)C2)cc2nc(-c3cc4ccc5nc4n3C[C@@H]3C[C@@H]3COCCC(=O)N[C@@H]5C)n(C)c12 [Example 305, (3~{R},5~{S},12~{R})-18-[5-[(3~{R})-3-aminopiperidine-1-carbonyl]-7-methoxy-1-methyl-benzimidazol-2-yl]-12-methyl-7-oxa-1,11,20-triazatetracyclo[11.5.2.0^{3,5).0^{16,19}] icosa-13(20),14,16(19),17-tetraen-10-one]
9 | 0.085 µM | COc1cc(C(=O)N2CCC[C@@H](N)C2)cc2nc(-c3cc4ccc5nc4n3CC[C@H]3C[C@H]3COCCC(=O)N[C@@H]5C)n(C)c12 [Example 306, (4~{R},6~{R},13~{R})-19-[5-[(3~{R})-3-aminopiperidine-1-carbonyl]-7-methoxy-1-methyl-benzimidazol-2-yl]-13-methyl-8-oxa-1,12,21-triazatetracyclo[12.5.2.0^{4,6}.0^{17,20}] henicosa-14(21),15,17(20),18-tetraen-11-one]
10 | 0.082 µM | COc1cc(C(=O)N2CCC[C@@H](N)C2)cc2nc(-c3cc4ccc5cc4n3CCCOC[C@H]3C[C@H]3C(=O)N[C@@H]5C)n(C)c12 [Example 307, (2~{R},5~{R},7~{S})-14-[5-[(3~{R})-3-aminopiperidine-1-carbonyl]-7-methoxy-1-methyl-benzimidazol-2-yl]-2-methyl-9-oxa-3,13-diazatetracyclo[11.5.2.0^{5,7}.0^{16,20}] icosa-1(19),14,16(20),17-tetraen-4-one]
11 | 0.072 µM | COc1cc(C(=O)N2CCC[C@@H](N)C2)cc2nc(-c3cc4ccc5nc4n3CCCOC[C@H]3C[C@H]3C(=O)N[C@@H]5C)n(C)c12 [Example 308, (2~{R},5~{R},7~{S})-14-[5-[(3~{R})-3-aminopiperidine-1-carbonyl]-7-methoxy-1-methyl-benzimidazol-2-yl]-2-methyl-9-oxa-3,13,19-triazatetracyclo[11.5.2.0^{5,7}.0^{16,20}] icosa-1(19),14,16(20),17-tetraen-4-one]
12 | 1.38 µM | COc1cc(C(=O)N2CCC[C@@H](N)C2)cc2nc(-c3cc4ccc5nc4n3CCCOC[C@@H]3C[C@@H]3C(=O)N[C@@H]5C)n(C)c12 [Example 309, (2~{R},5~{S},7~{R})-14-[5-[(3~{R})-3-aminopiperidine-1-carbonyl]-7-methoxy-1-methyl-benzimidazol-2-yl]-2-methyl-9-oxa-3,13,19-triazatetracyclo[11.5.2.0^{5,7}.0^{16,20}] icosa-1(19),14,16(20),17-tetraen-4-one]
13 | 0.135 µM | COc1cc(C(=O)N2CCC[C@@H](N)C2)cc2nc(-c3cc4ccc5nc4n3C[C@H]3C[C@H]3COCC(C)(C)C(=O)N[C@@H]5C)n(C)c12 [Example 310, (3~{S},5~{R},12~{R})-18-[5-[(3~{R})-3-aminopiperidine-1-carbonyl]-7-methoxy-1-methyl-benzimidazol-2-yl]-9,9,12-trimethyl-7-oxa-1,11,20-triazatetracyclo[11.5.2.0^{3,5}.0^{16,19}] icosa-13(20),14,16(19),17-tetraen-10-one]
14 | 0.175 µM | COc1cc(C(=O)N2CCC[C@@H](N)C2)cc2nc(-c3cc4ccc5nc4n3C[C@H]3C[C@H]3COCC3(CC3)C(=O)N[C@@H]5C)n(C)c12 [Example 311, (3~{S],5~{R},12~{R})-18-[5-[(3~{R})-3-aminopiperidine-1-carbonyl]-7-methoxy-1-methyl-benzimidazol-2-yl]-12-methyl-spiro[7-oxa-1,11,20-triazatetracyclo[11.5.2.0^{3,5}.0^{16,19}]icosa-13(20),14,16(19),17-tetraene-9,1′-cyclopropane]-10-one]
15 | 0.156 µM | COc1cc(C(=O)N2CC[C@@H](OC)[C@@H](N)C2)cc2nc(-c3cc4ccc5nc4n3C[C@H]3C[C@H]3COCCC(=O)N[C@@H]5C)n(C)c12 [Example 314, (3~{S),5~{R},12~{R})-18-[5-[(3~{S},4~{R})-3-amino-4-methoxy-piperidine-1-carbonyl]-7-methoxy-1-methyl-benzimidazol-2-yl]-12-methyl-7-oxa-1,11,20-triazatetracyclo[11.5.2.0^{3,5}.0^{16,19}] icosa-13(20),14,16(19),17-tetraen-10-one]
16 | 0.045 µM | COc1cc(C(=O)N[C@H]2CNCC[C@@H]2F)cc2nc(-c3cc4ccc5nc4n3C[C@H]3C[C@H]3COCCC(=O)N[C@@H]5C)n(C)c12 [Example 315, ~{N}-[(3~{S},4~{S})-4-fluoro-3-piperidyl]-7-methoxy-1-methyl-2-[(3~{S},5~{R},12~{R})-12-methyl-10-oxo-7-oxa-1,11,20-triazatetracyclo[11.5.2.0^{3,5}.0^{16,19}]icosa-13(20),14,16(19),17-tetraen-18-yl]benzimidazole-5-carboxamide]
17 | 0.014 µM | COc1cc(C(=O)N2[C@H]3CC[C@@H]2[C@H](N)C3)cc2nc(-c3cc4ccc5nc4n3CCCCCCCC(=O)N[C@@H]5C)c(C)n12 [Example 316, (11˜{R})-17-[7-[(1˜{R},2˜{R},4˜{S})-2-amino-7-azabicyclo[2.2.1]heptane-7-carbonyl]-5-methoxy-3-methyl-imidazo[1,2-a]pyridin-2-yl]-11-methyl-1,10,19-triazatricyclo[10.5.2.0^{15,18}]nonadeca-12(19),13,15(18),16-tetraen-9-one]
18 | 0.016 µM | COc1cc(C(=O)N2[C@H]3CC[C@@H]2[C@H](N)C3)cc2nc(-c3cc4ccc5nc4n3CCCCCCC(=O)N[C@@H]5C)c(C)n12 [Example 317, (10~{R})-16-[7-[(1~{R},2~{R},4~{S})-2-amino-7-azabicyclo[2.2.1]heptane-7-carbonyl]-5-methoxy-3-methyl-imidazo[1,2-a]pyridin-2-yl]-10-methyl-1,9,18-triazatricyclo[9.5.2.0^{14,17}]octadeca-11(18),12,14(17),15-tetraen-8-one]
19 | 0.018 µM | COc1cc(C(=O)N2[C@H]3CC[C@@H]2[C@H](N)C3)cc2nc(-c3cc4ccc5nc4n3CCCCCCCCC(=O)N[C@@H]5C)c(C)n12 [Example 318, (12~{R})-18-[7-[(1~{R},2~{R},4~{S})-2-amino-7-azabicyclo[2.2.1]heptane-7-carbonyl]-5-methoxy-3-methyl-imidazo[1,2-a]pyridin-2-yl]-12-methyl-1,11,20-triazatricyclo[11.5.2.0^{16,19}]icosa-13(20),14,16(19),17-tetraen-10-one]
